Data on 10 compounds can be found in ChEMBL document CHEMBL1201862, “PubChem BioAssay data set” (2004).

Where “and” joins values, the source holds several entries; their conditions need not be identical. Identical values can stand only once.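 These data come from cells grown in 96-well plates and exposed to compound for 48 hours at five concentrations. GI50 marks 50% less growth.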 Calls of active or inactive are those of the source. Cut-off read from the data, not from the text of the source: active = GI50 up to about 1.1 µM and inactive = higher. *1 amine or outer side, *2 acyl side, *3 side chain or, on linkers, in order; H or OH if unused. Where a SMILES comes first, the peptide text is derived from it. Bridges are numbered along the chain shown (N, C = ends). Roman numbers before positions name the chains, in order. [ ]: non-standard residue; d: D form. Actinocin(1to9) = Cc1c2oc3c(C)ccc(C(=O)[*:2])c3nc-2c(C(=O)[*:1])c(N)c1=O; NMeV = CN[CH](C(=O)O)C(C)C; Sar = CNCC(=O)O A value given as a limit tells only on which side of the number the result lay.

Test systems include T47D; SF-268; SNB-75; IGROV-1; SF-295; OVCAR-5; SR; OVCAR-3; HT-29; UO-31; 786-0; KM12; K562; SK-OV-3; OVCAR-8; SW-620; EKVX; HOP-92; COLO 205; HCT-116.
Experiment in all cases: growth of human tumour cells (NCI), 48 h

Consider `CC(=O)OC1COC(n2c(N)c(C#N)c(C)c(C#N)c2=S)C(OC(C)=O)C1OC(C)=O` (stereo unspecified), for which the GI50 was 55.3 µM (inactive) and 58.3 µM (inactive) with T47D; > 100 µM (inactive) and 85.5 µM (inactive) in the assay on SF-268; > 100 µM (inactive) with SNB-75; > 100 µM (inactive) in the assay with IGROV-1; > 100 µM (inactive) in the assay on SF-295; > 100 µM (inactive) in the assay on OVCAR-5. The GI50 with SR was > 100 µM (inactive) and 54.1 µM (inactive); in the assay with OVCAR-3, > 100 µM (inactive); with HT-29, > 100 µM (inactive); with UO-31, > 100 µM (inactive); in the assay on 786-0 it was > 100 µM (inactive); in the assay with KM12, > 100 µM (inactive). Also, the GI50 was 58.9 µM (inactive) in the assay on K562, > 100 µM (inactive) with SK-OV-3, > 100 µM (inactive) with OVCAR-8 and > 100 µM (inactive) in the assay with SW-620.
On to `O=c1cc(-c2ccccc2)[nH]c2cccc(S)c12`, for which the GI50 in the assay on T47D is 8.32 µM (inactive); with SF-268 it was 1.25 µM (inactive); with EKVX it was > 100 µM (inactive); with IGROV-1 it was 0.341 µM (active); with HOP-92 it was 0.288 µM (active); in the assay on SF-295 it was 0.115 µM (active). For the same compound, the GI50 was > 100 µM (inactive) in the assay with OVCAR-5; 0.172 µM (active) in the assay with SR; 3.14 µM (inactive) in the assay with OVCAR-3; 0.249 µM (active) in the assay on COLO 205; 0.202 µM (active) in the assay on HT-29; 0.0867 µM (active) in the assay on HCT-116. For the same compound, the GI50 with 786-0 is 0.301 µM (active); in the assay on KM12 it was 0.277 µM (active); with K562, 0.0588 µM (active); in the assay on SK-OV-3 it was 0.119 µM (active); with OVCAR-8, 0.324 µM (active); in the assay on SW-620 it was 0.0566 µM (active).
As to `COC(=O)[C@@]1(Cc2ccc(OC(C)=O)cc2)Cc2cc3ccccc3n2N1`, the GI50 was 24.8 µM (inactive) in the assay on T47D; 60.4 µM (inactive) in the assay with SF-268; 23.8 µM (inactive) in the assay on EKVX; 55.8 µM (inactive) in the assay on IGROV-1; 75 µM (inactive) in the assay with HOP-92; 46.8 µM (inactive) in the assay on SF-295. The GI50 in the assay with OVCAR-5 was 94.4 µM (inactive); in the assay with SR it was 13.5 µM (inactive); in the assay on OVCAR-3, 69.5 µM (inactive); in the assay with COLO 205 it was 31.2 µM (inactive); with HT-29, 36 µM (inactive); with HCT-116, 35 µM (inactive). Besides, the GI50 was 50.7 µM (inactive) in the assay with UO-31; 33.7 µM (inactive) with 786-0; 60.7 µM (inactive) in the assay with KM12; > 100 µM (inactive) in the assay on SK-OV-3; 50.8 µM (inactive) in the assay with OVCAR-8; 29.2 µM (inactive) in the assay on SW-620.
Consider `CC1(C)OC[C@@H](O)[C@H](Br)CO1`, for which the GI50 is > 100 µM (inactive) in the assay on T47D; 53.8 µM (inactive) in the assay on SF-268; > 100 µM (inactive) in the assay with SNB-75; > 100 µM (inactive) in the assay on EKVX; > 100 µM (inactive) in the assay with SF-295; > 100 µM (inactive) with OVCAR-5. In addition, the GI50 with SR, in the assay with OVCAR-3, in the assay with COLO 205, with HT-29, in the assay with HCT-116 and with UO-31 was > 100 µM (inactive) in each case. The GI50 was > 100 µM (inactive) in the assay on 786-0; > 100 µM (inactive) with KM12; 79.8 µM (inactive) with K562; > 100 µM (inactive) in the assay with SK-OV-3; > 100 µM (inactive) in the assay on OVCAR-8; > 100 µM (inactive) in the assay on SW-620.
As for `CCOC(=O)C(Cc1cn(S(=O)(=O)c2ccc(C)cc2)cn1)P(=O)(OCC)OCC` (stereo unspecified), the GI50 in the assay with T47D, in the assay with SF-268, in the assay with SNB-75, in the assay on EKVX, in the assay on IGROV-1 and in the assay with SF-295 was > 100 µM (inactive) throughout. Besides, the GI50 with OVCAR-5, in the assay with SR, in the assay on OVCAR-3, in the assay on COLO 205, in the assay on HT-29 and in the assay with HCT-116 was > 100 µM (inactive) each time. Besides, the GI50 in the assay on UO-31, in the assay on 786-0, with KM12, in the assay on K562, in the assay on SK-OV-3 and in the assay on OVCAR-8 was > 100 µM (inactive) each time. The GI50 in the assay on SW-620 is > 100 µM (inactive).
As for `CONC(C)=O`, the GI50 with T47D, in the assay with SF-268, in the assay on SNB-75, with EKVX, with IGROV-1 and with SF-295 was > 100 µM (inactive) each time. The GI50 in the assay on OVCAR-5, in the assay with SR, with OVCAR-3, in the assay on COLO 205, with HT-29 and in the assay with HCT-116 was > 100 µM (inactive) throughout. The GI50 with UO-31, in the assay with 786-0, in the assay on KM12, in the assay on K562, with SK-OV-3 and in the assay on OVCAR-8 was > 100 µM (inactive) in each case. Moreover, in the assay on SW-620, the GI50 is > 100 µM (inactive).
`COC(=O)[C@]12CC[C@H]3CN(C(=O)OCc4ccccc4)[C@H]([C@H]31)[C@H](c1ccco1)N2`: the GI50 in the assay on T47D was 42.1 µM (inactive); in the assay with SF-268 it was 57 µM (inactive); in the assay with EKVX, 39.9 µM (inactive); in the assay on IGROV-1, 60.4 µM (inactive); with HOP-92, 29.4 µM (inactive); with SF-295 it was 32.1 µM (inactive). Also, the GI50 is > 100 µM (inactive) in the assay with OVCAR-5; 44.9 µM (inactive) in the assay on SR; 51.6 µM (inactive) with OVCAR-3; 20.1 µM (inactive) in the assay with COLO 205; 81.3 µM (inactive) in the assay with HT-29; 40.8 µM (inactive) with HCT-116. The GI50 was > 100 µM (inactive) with UO-31; 77.8 µM (inactive) in the assay on 786-0; 26.4 µM (inactive) with KM12; 30.4 µM (inactive) with K562; > 100 µM (inactive) in the assay on SK-OV-3; 33 µM (inactive) with OVCAR-8. For the same compound, the GI50 in the assay on SW-620 is > 100 µM (inactive).
For `CO/C=C(/C(=O)OC)c1ccccc1[C@@H]1CC1c1cccc(F)c1` (stereo partly specified), the GI50 in the assay on T47D is 20.4 µM (inactive); in the assay with SF-268, 37.5 µM (inactive); in the assay on EKVX it was 30.5 µM (inactive); in the assay with IGROV-1 it was 18.2 µM (inactive); with HOP-92, 23.3 µM (inactive); with SF-295, 67 µM (inactive). The GI50 in the assay with OVCAR-5 was > 100 µM (inactive); in the assay on SR, 21.2 µM (inactive); with OVCAR-3, 27.6 µM (inactive); with COLO 205 it was 15.7 µM (inactive); with HT-29 it was 30.4 µM (inactive); in the assay on HCT-116 it was 21.1 µM (inactive). Further, the GI50 with UO-31 was 31.8 µM (inactive); with 786-0 it was 41 µM (inactive); in the assay with KM12, 24.7 µM (inactive); in the assay with K562 it was 44.2 µM (inactive); with SK-OV-3, 25.5 µM (inactive); with OVCAR-8, 33.5 µM (inactive).
Consider `COc1ccccc1-c1nc(O)c2ccccc2n1`, for which the GI50 was 49.9 µM (inactive) in the assay on T47D; > 100 µM (inactive) in the assay with SF-268; > 100 µM (inactive) with SNB-75; 59.6 µM (inactive) in the assay with EKVX; > 100 µM (inactive) in the assay on IGROV-1; > 100 µM (inactive) in the assay with SF-295. Moreover, the GI50 with OVCAR-5, in the assay with SR, in the assay on OVCAR-3, with COLO 205, in the assay on HCT-116 and with UO-31 was > 100 µM (inactive) throughout. Moreover, the GI50 in the assay with 786-0, with KM12, in the assay on SK-OV-3, in the assay with OVCAR-8 and in the assay with SW-620 was > 100 µM (inactive) each time.
For `COc1ccc(CC2NC(=O)C(NC(=O)c3c4nc5c(C(=O)NC6C(=O)NC(Cc7ccc(OC)cc7)C(=O)N7CCCC7C(=O)N(C)CC(=O)N(C)C(C(C)C)C(=O)OC6C)ccc(C)c5oc-4c(C)c(=O)c3N)C(C)OC(=O)C(C(C)C)N(C)C(=O)CN(C)C(=O)C3CCCN3C2=O)cc1` (stereo unspecified) (I: TY(Me)P[Sar][NMeV] / II: TY(Me)P[Sar][NMeV]; ester I:1-I:C, II:1-II:C; linker I:N-II:N via Actinocin(1to9); configuration not given here), the GI50 in the assay on T47D is < 0.001 µM (active); with SF-268, 0.0219 µM (active); in the assay with SNB-75 it was 0.00109 µM (active); with EKVX, 0.164 µM (active); in the assay on IGROV-1 it was < 0.001 µM (active); with SF-295, 0.01 µM (active). Also, the GI50 in the assay with OVCAR-5 was 0.00267 µM (active); with SR it was < 0.001 µM (active); with OVCAR-3, 0.0123 µM (active); in the assay with COLO 205 it was < 0.001 µM (active); in the assay on HT-29, < 0.001 µM (active); in the assay with HCT-116 it was < 0.001 µM (active). In addition, the GI50 with UO-31 was 0.00822 µM (active); in the assay with 786-0 it was 0.0141 µM (active); in the assay on KM12, < 0.001 µM (active); with K562 it was < 0.001 µM (active); with SK-OV-3, 0.0116 µM (active); in the assay with OVCAR-8, < 0.001 µM (active). The GI50 in the assay with SW-620 is < 0.001 µM (active).
